Experimental data taken from article PMC3716607, “Inhibition of Histo-blood Group Antigen Binding as a Novel Strategy to Block Norovirus Infections” (PLoS ONE, 2013).
Like-named read-outs stand apart in the source and are kept apart here.

Columns and labels:
[1] = molecular target: VA387 P dimers binding to type A and B saliva HBGAs (Norovirus GII.4 (Human calicivirus NLV/VA98387/1998), UniProt Q913Z3); assay: biochemical; parameters: species or system GII.4 NoV (VA387)
Method: Saliva-based NoV-HBGA binding assays were performed as described previously using P dimers of VA387 (GII.4) as NoV surrogates and saliva samples and/or synthetic oligosaccharides as HBGA sources, [34], [35]. Briefly, synthetic oligosaccharides and/or boiled saliva samples with defined HBGAs phenotype were coated on 96-well microtiter plates, after blocking with nonfat milk, P dimer of VA387 were added. The bound P dimer was detected using a guinea pig antiserum against NoVs VLPs, followed by the addition of horseradish peroxidase (HRP)-conjugated goat anti-guinea pig IgG. The bound HRP conjugates were colorized by the TMB kit (Kirkegaard & Perry Laboratories), which was read an EIA spectrum reader (Tecan). The synthetic oligosaccharide-PAA conjugates (2 µg/ml, GlycoTech Corporation, Rockville, MD) were captured to a microtiter plate through coated streptavidin (5 µg/ml).
Blocking effects of the hit compounds were measured by a pre-incubation of the P dimers with the compounds at given concentrations for 30 min before the P dimers were added to the coated saliva samples or HBGA oligosaccharides in a binding assay. The blocking activity of a compound was defined as its concentration yielding 50% inhibition (IC50) in the binding assay. IC50 calculation was performed using Probit regression analysis and correlation analysis between IC50 and Ki values was performed with nonparametric Spearman’s r (two-tailed) by using SPSS statistical software version 13.0 (SPSS, Chicago, IL).

MTS cytotoxicity assay = format: cell-based, human (HeLa); rhesus monkey (LLC-MK2)
Method: This assay was performed using CellTiter 96 aqueous nonradioactive cell proliferation kits (Promega, Madison, WI) as described elsewhere. Briefly, HeLa and LLC-MK2 cells were seeded at 5×10^4 cells/ml onto a 96-well plate overnight. After an incubation with each compound at various concentrations for 3 days (the compound was added one time at the beginning of the incubation), the culture medium was replaced with fresh one with 100 µl of MTS-phenazine methosulfate/well. After a further incubation at 37°C for 2 h, the color products of MTS were measured with a plate reader at 490 nm. The cytotoxicities of individual compounds were indicated by the decrease in cellular reduction of MTS into the colored product. The 50% cytotoxic concentrations (CC50 s) were determined as the concentrations of the compounds that caused 50% inhibition of cell growth compared with that of control cells without a compound.

[2] = IC50 Saliva A, blocking assay, type A saliva, mean ± standard deviation
[3] = IC50 Saliva B, blocking assay, type B saliva, mean ± standard deviation
[4] = Activity (IC50), against binding of VA387 to the A and B saliva
[5] = 3 days incubation, HeLa and LLC-MK2 cells, cell line not given, read-out: CC50

Sequence of VA387 P dimers binding to type A and B saliva HBGAs (Q913Z3 entry or part of it): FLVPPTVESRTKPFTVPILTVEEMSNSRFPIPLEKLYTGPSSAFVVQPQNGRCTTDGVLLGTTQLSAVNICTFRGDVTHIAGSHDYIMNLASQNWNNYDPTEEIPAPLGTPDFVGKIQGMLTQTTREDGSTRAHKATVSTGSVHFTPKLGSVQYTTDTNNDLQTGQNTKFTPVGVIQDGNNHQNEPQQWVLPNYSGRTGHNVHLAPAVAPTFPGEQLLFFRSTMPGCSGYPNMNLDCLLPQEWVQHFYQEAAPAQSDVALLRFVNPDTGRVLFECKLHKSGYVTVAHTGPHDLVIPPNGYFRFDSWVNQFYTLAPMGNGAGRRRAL

SMILES: O=C1CC(c2ccc([N+](=O)[O-])cc2)c2ccc3ccccc3c2N1 (centres unmarked) [ZINC00124088]
- IC50 [1, 2]: 24.5 ± 0.98 µM
- IC50 [1, 3]: 26.3 ± 1.24 µM

SMILES: CC1(C)CC(=O)C2=C(C1)c1c(ccc3ccccc13)NC2 [ZINC00128665]
- IC50 [1, 2]: 14.1 ± 0.53 µM
- IC50 [1, 3]: 14.9 ± 0.71 µM

SMILES: Cc1ccc(C2CC(=O)Nc3c2ccc2ccccc32)cc1[N+](=O)[O-] (centres unmarked) [ZINC00181174]
- IC50 [1, 2]: 33.5 ± 0.68 µM
- IC50 [1, 3]: 33.7 ± 1.27 µM

SMILES: CC(=O)OCC(=O)C1CCC2C3CC=C4CC(O)CCC4(C)C3CCC12C (centres unmarked) [ZINC00652738]
- IC50 [1, 2]: 30.9 ± 1.04 µM
- IC50 [1, 3]: 30.1 ± 1.35 µM

SMILES: CC(=O)C1=CCC2C3CC=C4CC(O)CCC4(C)C3CCC12C (centres unmarked) [ZINC00968234]
- IC50 [1, 4]: 20 to 40 µM

SMILES: CC12CCC3C(CCC4CC(=O)CCC43C)C1CCC2O (centres unmarked) [ZINC03814360]
- IC50 [1, 2]: 36.9 ± 1.47 µM
- IC50 [1, 3]: 35.7 ± 1.06 µM

SMILES: Cc1noc2c1C1(C)CCC3C(CC=C4CC(O)CCC43C)C1C2 (centres unmarked) [ZINC04014899]
- IC50 [1, 2]: 33.9 ± 1.67 µM
- IC50 [1, 3]: 34.5 ± 1.93 µM

SMILES: C[C@]12CCC3C(CC[C@H]4CC=CC[C@]34C)C1CC/C2=N/NC(N)=S (some centres unmarked) [ZINC04026813]
- CC50 at 3 days (MTS cytotoxicity assay): 212 µM
- IC50 [1, 4]: 1 to 10 µM
- IC50 [1, 2]: 8.7 ± 1.03 µM
- IC50 [1, 3]: 8.97 ± 0.63 µM

SMILES: C/C(=N/O)C1=CCC2C3CC[C@H]4C/C(=N\O)CC[C@]4(C)C3CC[C@]12C (some centres unmarked) [ZINC04041115]
- CC50 at 3 days (MTS cytotoxicity assay): 203 µM
- IC50 [1, 4]: 1 to 10 µM
- IC50 [1, 2]: 2.38 ± 0.15 µM
- IC50 [1, 3]: 2.54 ± 0.21 µM

SMILES: CC12CCC(O)C=C1CCC1C2CCC2(C)C1CCC21CCC(=O)O1 (centres unmarked) [ZINC04081424]
- IC50 [1, 4]: 20 to 40 µM

SMILES: CC12CCC(=NOCC(=O)NCC(=O)O)C=C1CCC1C2CCC2(C)C(O)CCC12 (centres unmarked) [ZINC04084183]
- IC50 [1, 4]: 10 to 20 µM

SMILES: Nc1ccc2c(c1)C1C=CCC1C(c1ccc([N+](=O)[O-])cc1)N2 (centres unmarked) [ZINC04095376]
- IC50 [1, 2]: 12.6 ± 0.87 µM
- IC50 [1, 3]: 12.8 ± 0.64 µM

SMILES: O=C(O)c1ccc(C2Nc3c(F)cccc3C3C=CCC32)cc1 (centres unmarked) [ZINC04298453]
- IC50 [1, 2]: 38 ± 2.01 µM
- IC50 [1, 3]: 39.4 ± 1.53 µM

SMILES: COc1cc([N+](=O)[O-])cc2c1NC(c1ccccn1)C1CC=CC21 (centres unmarked) [ZINC04450155]
- IC50 [1, 4]: 20 to 40 µM
- IC50 [1, 2]: 24.2 ± 0.74 µM
- IC50 [1, 3]: 24.3 ± 0.87 µM

SMILES: O=[N+]([O-])c1ccc2c(c1)C1C=CCC1C(C1CC=CCC1)N2 (centres unmarked) [ZINC04725822]
- IC50 [1, 2]: 13.2 ± 1.04 µM
- IC50 [1, 3]: 13.1 ± 0.87 µM

SMILES: CC(CCC(=O)O)C1CCC2C3CC=C4CC(O)CCC4(C)C3CCC12C (centres unmarked) [ZINC04831336]
- CC50 at 3 days (MTS cytotoxicity assay; [5]): 225 µM
- IC50 [1, 4]: 1 to 10 µM
- IC50 [1, 2]: 7.63 ± 0.27 µM
- IC50 [1, 3]: 7.65 ± 0.33 µM

SMILES: C[C@]12CC[C@H](O)C[C@@H]1CC[C@@H]1[C@@H]2CC[C@@]2(C)[C@H]1CC[C@]2(C)O [ZINC05223451]
- CC50 at 3 days (MTS cytotoxicity assay; [5]): 171 µM
- IC50 [1, 4]: 1 to 10 µM
- IC50 [1, 2]: 3.37 ± 0.13 µM
- IC50 [1, 3]: 3.39 ± 0.24 µM

SMILES: CC(=O)C1CCC2C3CCC4CC(O)CCC4(C)C3CCC12C (centres unmarked) [ZINC05260830]
- CC50 at 3 days (MTS cytotoxicity assay; [5]): 267 µM
- IC50 [1, 4]: 1 to 10 µM

SMILES: CC1CCc2c(sc3ncn(C(C)C(=O)N/N=C/c4c(O)ccc5ccccc45)c(=O)c23)C1 (centres unmarked) [ZINC06166484]
- IC50 ([1]; read-out: IC50 Saliva A, blocking assay, type A saliva, mean ± standard deviation): 17 ± 1.06 µM
- IC50 ([1]; read-out: IC50 Saliva B, blocking assay, type B saliva, mean ± standard deviation): 16.8 ± 0.87 µM
